Test results as given in ChEMBL document CHEMBL1201862, “PubChem BioAssay data set” (2004).
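Results reflect a 48-hour exposure of cells in 96-well plates to compound at five concentrations. GI50: concentration for 50% inhibition of growth.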 The source made the active and inactive calls. No stated cut-off is given here; in the data, active = GI50 up to about 1.1 µM and inactive = higher.

Key:
Assay in all cases: NCI-60 cell line screen, 48 h
[1] = tested on: EKVX
[2] = tested on: HT-29
[3] = tested on: SNB-75
[4] = tested on: A549
[5] = tested on: OVCAR-8
[6] = tested on: A498
[7] = tested on: LXFL 529
[8] = tested on: SF-295
[9] = tested on: SK-MEL-5
[10] = tested on: TK-10
[11] = tested on: SW-620
[12] = tested on: NCI-H226
[13] = tested on: NCI-H460
[14] = tested on: T47D
[15] = tested on: MDA-N
[16] = tested on: SR
[17] = tested on: MDA-MB-435
[18] = tested on: MCF7
[19] = tested on: CCRF-CEM
[20] = tested on: DU-145

Compound	GI50 [1]	GI50 [2]	GI50 [3]	GI50 [4]	GI50 [5]	GI50 [6]	GI50 [7]	GI50 [8]	GI50 [9]	GI50 [10]	GI50 [11]	GI50 [12]	GI50 [13]	GI50 [14]	GI50 [15]	GI50 [16]	GI50 [17]	GI50 [18]	GI50 [19]	GI50 [20]
CCCCC(C(=O)C(=O)Nc1ccc(C)cc1C)C(=O)C(C)C (stereo unspecified)	> 100 µM (inactive)	> 100 µM (inactive)	> 100 µM (inactive)	> 100 µM (inactive)	> 100 µM (inactive)	> 100 µM (inactive)	> 100 µM (inactive)	> 100 µM (inactive)	> 100 µM (inactive)	> 100 µM (inactive)	> 100 µM (inactive)	> 100 µM (inactive)	> 100 µM (inactive)	–	–	–	–	–	–	–
COC(O)C12OC3CO[Si](C(C)C)(C(C)C)O[Si](C(C)C)(C(C)C)OC3C1Oc1nc(=O)ccn12 (stereo unspecified)	13.6 µM (inactive)	6.73 µM (inactive)	26.2 µM (inactive)	12.6 µM (inactive)	11.2 µM (inactive)	17.3 µM (inactive)	–	12.2 µM (inactive)	7.87 µM (inactive)	14.3 µM (inactive)	> 36.8 µM (inactive)	17.7 µM (inactive)	11.3 µM (inactive)	7.69 µM (inactive)	12.8 µM (inactive)	1.23 µM (inactive)	12.3 µM (inactive)	10.5 µM (inactive)	4.5 µM (inactive)	16.3 µM (inactive)
O=C1c2cccc3cccc(c23)C(=O)N1CCCNCCCCNCCCN1C(=O)c2cccc3cccc(c23)C1=O	0.986 µM (active)	0.0315 µM (active)	0.202 µM (active)	0.0495 µM (active)	0.177 µM (active)	0.946 µM (active)	–	0.658 µM (active)	0.644 µM (active)	1.57 µM (inactive)	0.0612 µM (active)	0.748 µM (active)	0.0194 µM (active)	0.515 µM (active)	0.256 µM (active)	< 0.01 µM (active)	0.159 µM (active)	< 0.0138 µM (active)	< 0.01 µM (active)	0.0887 µM (active)
S=C(N/N=C/c1ccccc1)NC1CC(c2ccccc2)Oc2ccccc21 (stereo unspecified)	18.8 µM (inactive)	53 µM (inactive)	7.16 µM (inactive)	26.8 µM (inactive)	48 µM (inactive)	–	> 100 µM (inactive)	16.1 µM (inactive)	11.1 µM (inactive)	> 10 µM (inactive)	> 100 µM (inactive)	> 100 µM (inactive)	23.1 µM (inactive)	–	–	> 100 µM (inactive)	–	–	> 10 µM (inactive)	–
O=C(N/C(=C\c1ccc([N+](=O)[O-])cc1)c1nc2ccccc2s1)c1ccccc1	–	31.6 µM (inactive)	26.7 µM (inactive)	30.7 µM (inactive)	24.6 µM (inactive)	31.3 µM (inactive)	18.8 µM (inactive)	–	25.7 µM (inactive)	22.6 µM (inactive)	26.7 µM (inactive)	–	–	–	–	–	–	–	19.1 µM (inactive)	–
COc1ccc(OC)c(/C=C/C(=O)C(C)(C)C)c1	16.4 µM (inactive)	27.4 µM (inactive)	26 µM (inactive)	29.4 µM (inactive)	15.7 µM (inactive)	28.1 µM (inactive)	19.2 µM (inactive)	25 µM (inactive)	15 µM (inactive)	26.4 µM (inactive)	14.5 µM (inactive)	17.4 µM (inactive)	34.8 µM (inactive)	–	–	–	–	–	14.3 µM (inactive)	–
C/C(CN1C(=O)c2ccccc2C1=O)=N\NS(=O)(=O)c1ccccc1	> 100 µM (inactive)	> 100 µM (inactive)	> 100 µM (inactive)	> 100 µM (inactive)	> 100 µM (inactive)	> 100 µM (inactive)	> 100 µM (inactive)	> 100 µM (inactive)	> 100 µM (inactive)	> 100 µM (inactive)	> 100 µM (inactive)	> 100 µM (inactive)	> 100 µM (inactive)	–	–	–	–	–	> 100 µM (inactive)	–
Cc1ccc(OCCn2cc(Nc3ccccc3)c(=O)[nH]c2=O)cc1	> 100 µM (inactive)	81.7 µM (inactive)	34.3 µM (inactive)	> 100 µM (inactive)	> 100 µM (inactive)	> 100 µM (inactive)	–	> 100 µM (inactive)	> 100 µM (inactive)	> 100 µM (inactive)	> 100 µM (inactive)	> 100 µM (inactive)	> 100 µM (inactive)	> 100 µM (inactive)	> 100 µM (inactive)	> 100 µM (inactive)	> 100 µM (inactive)	> 100 µM (inactive)	> 100 µM (inactive)	> 100 µM (inactive)
O=C1CCC2(c3ccc(F)cc3)Nc3ccccc3N12 (stereo unspecified)	> 100 µM (inactive)	> 100 µM (inactive)	63.7 µM (inactive)	> 100 µM (inactive)	> 100 µM (inactive)	> 100 µM (inactive)	> 100 µM (inactive)	> 100 µM (inactive)	> 100 µM (inactive)	> 100 µM (inactive)	> 100 µM (inactive)	> 100 µM (inactive)	> 100 µM (inactive)	–	–	–	–	–	> 100 µM (inactive)	–
